Holding throughout (format): in vivo
The nature of test [1]: Fecal lipid excretion (triglycerides, cholesterol, free fatty acids) in C57BL/6J mice fed a high-fat diet containing vegetable lipids with or without 5% allulose for 8 weeks. Particulars: in words. An excerpt:
Twenty C57BL/6J mice (male, 4-week-old) were purchased from The Jackson Laboratory (USA) and used. After the animals were acclimated to the feeding environment with a lab-chow diet (Purina Co., USA) for 4 weeks, they were divided by a randomized block design into two groups: a negative control group without the ingestion of allulose (n=10/one kind of lipid); and a test group with the ingestion of allulose (n=10/one kind of lipid) and they were fed with the diets for 8 weeks. For the negative control group, the high-fat diet was applied to the AIN-76 diet, and the vegetable lipids [palm oil ([…], Malaysia), olive oil (CJ CheilJedang Corp., South Korea), soybean oil (CJ CheilJedang Corp., South Korea), margarine (Ottogi Foods Co., Ltd., 'Corn margarine', raw materials: consisted of 80 wt % of vegetable lipids (palm olein oil, palm stearin oil, coconut oil, corn oil)] were included. For the test group, among the ingredients of the diet for the negative control group, 5 wt % of sucrose was replaced with allulose (crystalline allulose, 98 wt % of allulose based on dry solids, CJ CheilJedang Corporation) (Table 1). All the animal experiments were carried out under the approval of the Ethics Committee for Animal Studies at Kyungpook National University, South Korea (approval no. KNU-2013-18). […] To remove the turbidity occurring from the development with 3 mM cholic acid (sodium salt), 0.5% Triton X-100 as an emulsifier was mixed with an enzyme test solution during the quantification of total cholesterol and neutral lipids. […] For the quantification of both free cholesterol (FC) and ester-type cholesterol (CE) in the feces, CE was converted by cholesterol esterase into FC and fatty acids. […] The resulting product and H2O2 which is the substrate were subjected to the reaction with peroxidase, phenol, and 4-amino-antipyrine to obtain a color developing material and the absorbance was measured at 500 nm. Quantification was carried out by comparing the measured value with the cholesterol standard curve. […]

Test [2] can be described thus: Fecal lipid excretion (triglycerides, cholesterol, free fatty acids) in C57BL/6J mice fed a high-fat diet containing creamer with or without 5% allulose for 8 weeks. The following applies: allulose consumed along with vegetable lipids in the creamer, in words. An excerpt: Sixteen C57BL/6J mice (male, 4-week-old) were purchased from The Jackson Laboratory (USA) and used. After the animals were acclimated to the feeding environment with a lab-chow diet (Purina Co., USA) for 4 weeks, they were divided by a randomized block design into two groups: a negative control group without the ingestion of allulose (PR, n=8); and a test group with the ingestion of allulose (PRA, n=8) and they were fed with the diets for 8 weeks. […] To remove the turbidity occurring from the development with 3 mM cholic acid (sodium salt), 0.5% Triton X-100 as an emulsifier was mixed with an enzyme test solution during the quantification of total cholesterol and neutral lipids. […] For the quantification of both free cholesterol (FC) and ester-type cholesterol (CE) in the feces, CE was converted by cholesterol esterase into FC and fatty acids. […] The resulting product and H2O2 which is the substrate were subjected to the reaction with peroxidase, phenol, and 4-amino-antipyrine to obtain a color developing material and the absorbance was measured at 500 nm. Quantification was carried out by comparing the measured value with the cholesterol standard curve. […]

Test [3] in a line: Body weight of C57BL/6J mice fed a high-fat diet containing vegetable lipids (palm oil, olive oil, soybean oil, margarine) with or without 5% allulose for 8 weeks. The following applies: with allulose (5%), mean (SE in cell below); for Initial body weight: 0th week. An excerpt: Twenty C57BL/6J mice (male, 4-week-old) were purchased from The Jackson Laboratory (USA) and used. After the animals were acclimated to the feeding environment with a lab-chow diet (Purina Co., USA) for 4 weeks, they were divided by a randomized block design into two groups: a negative control group without the ingestion of allulose (n=10/one kind of lipid); and a test group with the ingestion of allulose (n=10/one kind of lipid) and they were fed with the diets for 8 weeks. For the negative control group, the high-fat diet was applied to the AIN-76 diet, and the vegetable lipids [palm oil ([…], Malaysia), olive oil (CJ CheilJedang Corp., South Korea), soybean oil (CJ CheilJedang Corp., South Korea), margarine (Ottogi Foods Co., Ltd., 'Corn margarine', raw materials: consisted of 80 wt % of vegetable lipids (palm olein oil, palm stearin oil, coconut oil, corn oil)] were included. For the test group, among the ingredients of the diet for the negative control group, 5 wt % of sucrose was replaced with allulose (crystalline allulose, 98 wt % of allulose based on dry solids, CJ CheilJedang Corporation) (Table 1). All the animal experiments were carried out under the approval of the Ethics Committee for Animal Studies at Kyungpook National University, South Korea (approval no. KNU-2013-18). All groups were allowed to ingest the iso-energetic diet of the same level by pair feeding based on the test group so as to exclude the calorie-reducing effect due to the allulose and the diets were kept refrigerated at 4° C. during the feeding period. The animals were housed in an individual cage under constant temperature (25±2° C.), constant humidity (50±5%), and a 12 h dark-light cycle. Dietary intake was measured at a constant time every day, and the body weight was measured at a constant time every week.

Each structure is given as a SMILES string.

We go through one molecule from patent US20200170269A1, “ALLULOSE-CONTAINING COMPOSITION FOR PROMOTING EXCRETION OF VEGETABLE LIPIDS FROM THE BODY” (CJ CHEILJEDANG CORPORATION, priority 2016, published 2020).

As to `O=C(CO)C(O)C(O)C(O)CO` [allulose, Allulose (D-psicose)], the “Cholesterol content in the feces / excretion of cholesterol” value in test [1] (HFD + soybean oil with 5% allulose compared to the SO group) is “increased”. Besides, the “Fecal excretion of lipids” value was “promoted” in test [1] (allulose consumed along with each of palm oil, olive oil, soybean oil, and margarine); “promoted” in test [2]. The “Effect of excreting lipids compared to ingestion of allulose along with other vegetable lipids” value in test [1] (allulose taken together with soybean oil) is on record as “excellent”. Moreover, the Initial body weight in test [3] (HFD + margarine) was 21.57±; in test [3] (HFD + olive oil), 21.28±; in test [3] (HFD + palm oil) it was 21.62±; in test [3] (HFD + soybean oil), 21.23±. In addition, the “Body weight on 8th week” value was 32.30± in test [3] (HFD + margarine), 28.87± in test [3] (HFD + olive oil), 29.57± in test [3] (HFD + palm oil) and 28.84± in test [3] (HFD + soybean oil).
